Consider 24 molecules from patent US11723929B2, “Methods of improving cell-based therapy” (THE REGENTS OF THE UNIVERSITY OF CALIFORNIA, priority 2017, dated 2023).

A word on the logP: it is a log measure of how a compound divides between an organic and an aqueous phase.

In one data set the test system is COX-1. The data set can be described thus: Inhibitory activity against COX-1 (Table 4). The data set is classed as biochemical. More on the design: dose or concentration left out as unconfirmed.
Data set [1] has as its target T1, sEH (Homo sapiens (Human), UniProt P34913). Nature of the data set: Inhibitory activity against sEH (Table 4). To be noted: read-out: sEH.
The nature of a further data set: Metabolic stability. The data set is classed as in vitro ADME. The text has this: (§1) Both the 1- and the 2-adamantyl ureas have been tested and have about the same high activity as an inhibitor of sEH.
In data set [2] the target is T1, sEH. Nature of the data set: Testing as inhibitor of sEH. It counts as biochemical.
Text: Derivatives of urea are transition state mimetics that form a group of sEH inhibitors. […] Any particular urea derivative or other compound can be easily tested for its ability to inhibit sEH by standard assays, such as those discussed herein. The production and testing of urea and carbamate derivatives as sEH inhibitors is set forth in detail in, for example, Morisseau et al., Proc Natl Acad Sci (USA) 96:8849-8854 (1999).
as §1
One category of these inhibitors comprises inhibitors that mimic the substrate for the enzyme. The lipid alkoxides (e.g., the 9-methoxide of stearic acid) are an exemplar of this group of inhibitors.

In data set [3] the test system is murine myocardial infarction (MI) model. Nature of the data set: Echocardiography, left ventricular fractional shortening after MI. The data set is classed as in vivo, mouse. How it is done:
The animals were followed for a period of three weeks at which time repeat echocardiograms were performed.
An increase in hiPSC-CMs engraftment translated into a significant improvement in cardiac function.

Another data set has as its system PDE4. The data set can be described thus: PDE4 inhibition by cAMP increase in live HEK cells transfected with a PKA biosensor. It counts as cell-based, human. To be noted: relative to Rolipram at 1 μM.
Data set [4] concerns murine myocardial infarction (MI) model. The data set can be described thus: In vivo bioluminescence imaging of transplanted hiPSC-CMs in the post MI model. Particulars: NSG mice post MI with transplanted hiPSC-CMs, with or without TPPU 15 mg/L in drinking water; BLI at 3 and 4 weeks.
For data set [5] the test system is unchanged. Nature of the data set: Flow cytometric quantification of GFP+ hiPSC-CMs in the post MI model. Particulars: NSG mice post MI with transplanted hiPSC-CMs, with or without TPPU; after 4 weeks. Background: Flow cytometry measures light scatter and fluorescence of single cells or particles in a stream.
The conditions of data set [6]: cited from earlier work.
Another data set can be described thus: Exp. logP (Table 3). The data set is classed as physicochemical.
For data set [7] the following is noted: PTZ Induced Seizure Model; Example 52 and FIG. 7 of WO 2015/148954; cited from earlier work.

Each structure is given as a SMILES string.

In the case of `NS(=O)(=O)c1ccc(-n2nc(CCNC(=O)Nc3cccc(C(F)(F)F)c3)cc2-c2ccccc2)cc1` [compound 2313, 4-(5-Phenyl-3-{2-[3-(3-trifluoromethyl-phenyl)-ureido]-ethyl}-pyrazol-1-yl)-benzenesulfonamide], the “COX-1 (% inhibition)” value in the data set with COX-1 is listed as 22.0 % inhibition. Moreover, the IC50 on sEH [1] amounted to 26 ± 3 nM.

As for `CS(=O)(=O)c1ccc(-n2nc(CCCNC(=O)Nc3cccc(C(F)(F)F)c3)cc2-c2ccccc2)cc1` [compound 1862, 1-{3-[1-(4-Methanesulfonyl-phenyl)-5-phenyl-1H-pyrazol-3-yl]-propyl}-3-(3-trifluoromethyl-phenyl)-urea], in the data set with COX-1, the “COX-1 (% inhibition)” value stood at 6.4 % inhibition. The IC50 on sEH [1] came to 3.4 ± 0.2 nM.

Consider `NS(=O)(=O)c1ccc(-n2nc(CCCNC(=O)Nc3ccc(Cl)cc3)cc2-c2ccccc2)cc1` [compound 2327, 4-(3-{3-[3-(4-Chloro-phenyl)-ureido]-propyl}-5-phenyl-pyrazol-1-yl)-benzenesulfonamide], for which the “COX-1 (% inhibition)” value with COX-1 is given as 15.2 % inhibition. Also, the IC50 at sEH [1] came out at 0.8 ± 0.1 nM.

Consider `NS(=O)(=O)c1ccc(-n2nc(CCCNC(=O)Nc3ccc(C(F)(F)F)cc3)cc2-c2ccccc2)cc1` [compound 2328, 4-(5-Phenyl-3-{3-[3-(4-trifluoromethyl-phenyl)-ureido]-propyl}-pyrazol-1-yl)-benzenesulfonamide], for which the “COX-1 (% inhibition)” value in the data set on COX-1 is listed as 22.7 % inhibition. Further, on sEH [1], the IC50 amounted to 0.9 ± 0.1 nM.

In the case of `CCCCCCCCCCCCNC(=O)NC12CC3CC(CC(C3)C1)C2` [ADU, N-Adamantyl-N′-dodecyl urea], the metabolic stability entry in the data set “Metabolic stability” is listed as “metabolically stable”. In addition, the “activity as inhibitor of sEH” value on sEH [2] is “particularly high activity”.

`CS(=O)(=O)c1ccc(-n2nc(CNC(=O)NC34CC5CC(CC(C5)C3)C4)cc2-c2ccccc2)cc1` [compound 1860, 1-Adamantan-1-yl-3-[1-(4-methanesulfonyl-phenyl)-5-phenyl-1H-pyrazol-3-ylmethyl]-urea]: the “COX-1 (% inhibition)” value in the data set with COX-1 was 12.7 % inhibition. For the same molecule, the IC50 at sEH [1] came out at 25 ± 1 nM.

On to `CS(=O)(=O)c1ccc(-n2nc(CNC(=O)Nc3ccc(C(F)(F)F)cc3)cc2-c2ccccc2)cc1` [compound 2324, 1-[1-(4-Methanesulfonyl-phenyl)-5-phenyl-1H-pyrazol-3-ylmethyl]-3-(4-trifluoromethyl-phenyl)-urea], for which the “COX-1 (% inhibition)” value in the data set with COX-1 is given as 10.7 % inhibition. The IC50 on sEH [1] came to 110 ± 5 nM.

On to `NS(=O)(=O)c1ccc(-n2nc(CCCNC(=O)NC34CC5CC(CC(C5)C3)C4)cc2-c2ccccc2)cc1` [compound 2326, 4-{3-[3-(3-Adamantan-1-yl-ureido)-propyl]-5-phenyl-pyrazol-1-yl}-benzenesulfonamide], for which the “COX-1 (% inhibition)” value with COX-1 is reported as 6.7 % inhibition. Besides, at sEH [1], the IC50 stood at 0.5 ± 0.1 nM.

For `CS(=O)(=O)c1ccc(-n2nc(CNC(=O)Nc3ccccc3)cc2-c2ccccc2)cc1` [compound 2322, 1-[1-(4-Methanesulfonyl-phenyl)-5-phenyl-1H-pyrazol-3-ylmethyl]-3-phenyl-urea], at sEH [1], the IC50 stood at 47 ± 4 nM.

As to `CCC(=O)N1CCC(NC(=O)Nc2ccc(OC(F)(F)F)cc2)CC1` [TPPU], the “improvement of FS with both sEHI and cells” value in data set [3] (MI+hiPSC-CM+TPPU, highest compared to other treatment groups) is 40%. Moreover, the “left ventricular fractional shortening (FS), MI+hiPSC-CM+TPPU group” value in data set [3] (after three weeks of TPPU treatment (before treatment 44±6%)) amounted to 61±2%. Moreover, in [3] (post treatment), the “fractional shortening (FS), MI+TPPU group” value stood at 55±0.7% and the “fractional shortening (FS), MI+TPPU+Vehicle (PBS injection) group” value worked out at 51±2%. For the same molecule, the “cAMP increase (% of Rolipram)” value in the data set on PDE4 is 40 ± 10 % of Rolipram. The “BLI signal of transplanted GFP+ hiPSC-CMs” value in [4] is 7.4×10^6±1.7×10^6 photons/s/cm^2/sr. Further, in data set [5], the “number of GFP+ hiPSC-CMs by flow cytometry” value was 9.9±0.5%. For the same molecule, in [6] (compared with many previous compounds (ref. 50)), the half-life result was “relatively longer half-life”. Also, the “area under the curve” value in data set [6] (in vivo) is on record as “high area under the curve values”.

As for `NS(=O)(=O)c1ccc(-n2nc(CCCNC(=O)Nc3cccc(C(F)(F)F)c3)cc2-c2ccccc2)cc1` [compound 2246, 4-(5-Phenyl-3-{3-[3-(3-trifluoromethyl-phenyl)-ureido]-propyl}-pyrazol-1-yl)-benzenesulfonamide], the “COX-1 (% inhibition)” value in the data set with COX-1 came to 27.2 % inhibition. In addition, the IC50 on sEH [1] worked out at 4.1 ± 0.4 nM.

Consider `NS(=O)(=O)c1ccc(-n2nc(CCCNC(=O)Nc3ccccc3)cc2-c2ccccc2)cc1` [compound 2245, 4-{5-Phenyl-3-[3-(3-phenyl-ureido)-propyl]-pyrazol-1-yl}-benzenesulfonamide], for which the “COX-1 (% inhibition)” value with COX-1 was determined as 15.8 % inhibition. Further, the IC50 on sEH [1] came to 0.8 ± 0.1 nM.

With `CC(C)c1cccc(C(C)C)c1NC(=O)NCCCc1cc(-c2ccccc2)n(-c2ccc(S(N)(=O)=O)cc2)n1` [compound 2325, 4-(3-{3-[3-(2,6-Diisopropyl-phenyl)-ureido]-propyl}-5-phenyl-pyrazol-1-yl)-benzenesulfonamide], the “COX-1 (% inhibition)” value in the data set with COX-1 turned out to be 6.2 % inhibition. Also, on sEH [1], the IC50 is 1550 ± 70 nM.

With `O=C(Nc1ccc(C(F)(F)F)cc1)NC1CCN(C(=O)C2(C(F)(F)F)CC2)CC1`, the logP in the data set “Exp. logP (Table 3)” turned out to be 4.63.

Regarding `CS(=O)(=O)c1ccc(-n2nc(CNC(=O)Nc3cccc(C(F)(F)F)c3)cc2-c2ccccc2)cc1` [compound 1861, 1-[1-(4-Methanesulfonyl-phenyl)-5-phenyl-1H-pyrazol-3-ylmethyl]-3-(3-trifluoromethyl-phenyl)-urea], the “COX-1 (% inhibition)” value in the data set on COX-1 amounted to 7.8 % inhibition. The IC50 at sEH [1] worked out at 72 ± 8 nM.

Consider `Cc1ccc(-c2cc(CCCNC(=O)Nc3cccc(C(F)(F)F)c3)nn2-c2ccc(S(N)(=O)=O)cc2)cc1` [compound 2152, 4-(5-p-Tolyl-3-{3-[3-(3-trifluoromethyl-phenyl)-ureido]-propyl}-pyrazol-1-yl)-benzenesulfonamide], for which the “COX-1 (% inhibition)” value with COX-1 is 12.1 % inhibition. For the same molecule, the IC50 at sEH [1] came to 10 ± 1 nM.

Take `NS(=O)(=O)c1ccc(-n2nc(CCCNC(=O)Nc3ccc(OC(F)(F)F)cc3)cc2-c2ccccc2)cc1` [compound 2329, 4-(5-Phenyl-3-{3-[3-(4-trifluoromethoxy-phenyl)-ureido]-propyl}-pyrazol-1-yl)-benzenesulfonamide]: in the data set on COX-1, the “COX-1 (% inhibition)” value came to 13.8 % inhibition. Moreover, the IC50 at sEH [1] came out at 0.5 ± 0.1 nM.

`NS(=O)(=O)c1ccc(-n2nc(CCCNC(=O)NC3CCCCCC3)cc2-c2ccccc2)cc1` [compound 2247, 4-{3-[3-(3-Cycloheptyl-ureido)-propyl]-5-phenyl-pyrazol-1-yl}-benzenesulfonamide]: in the data set on COX-1, the “COX-1 (% inhibition)” value was 10.2 % inhibition. At sEH [1], the IC50 was 0.5 ± 0.1 nM.

For the molecule `NS(=O)(=O)c1ccc(-n2nc(CNC(=O)Nc3cccc(C(F)(F)F)c3)cc2-c2ccccc2)cc1` [compound 2107, 4-{5-Phenyl-3-[3-(3-trifluoromethyl-phenyl)-ureidomethyl]-pyrazol-1-yl}-benzenesulfonamide], the “COX-1 (% inhibition)” value in the data set on COX-1 is 16.9 % inhibition. For the same molecule, the IC50 at sEH [1] was determined as 84 ± 6 nM.

In the case of `CS(=O)(=O)c1ccc(-n2nc(CNC(=O)Nc3ccc(OC(F)(F)F)cc3)cc2-c2ccccc2)cc1` [compound 2323, 1-[1-(4-Methanesulfonyl-phenyl)-5-phenyl-1H-pyrazol-3-ylmethyl]-3-(4-trifluoromethoxy-phenyl)-urea], the “COX-1 (% inhibition)” value in the data set on COX-1 turned out to be 10.4 % inhibition. In addition, the IC50 at sEH [1] was 6 ± 0.5 nM.

As for `CC(C)(C)c1cc(CNC(=O)Nc2cccc(C(F)(F)F)c2)nn1-c1ccc(S(C)(=O)=O)cc1` [compound 2106, 1-[5-tert-Butyl-1-(4-methanesulfonyl-phenyl)-1H-pyrazol-3-ylmethyl]-3-(3-trifluoromethyl-phenyl)-urea], the “COX-1 (% inhibition)” value with COX-1 stood at 2.4 % inhibition. Further, the IC50 on sEH [1] turned out to be 32 ± 3 nM.

Take `O=C(Nc1ccc(OC(F)(F)F)c(F)c1)NC1CCN(C(=O)C2CCOCC2)CC1` [1-(3-fluoro-4-(trifluoromethoxy)phenyl)-3-(1-(tetrahydro-2H-pyran-4-carbo-nyl)piperidin-4-yl)urea]: the “crossing of the blood-brain barrier” value in data set [7] is given as “cross the blood-brain barrier”.

On to `CS(=O)(=O)c1ccc(-n2nc(CNC(=O)NC3CCCCCC3)cc2-c2ccccc2)cc1` [compound 2321, 1-Cycloheptyl-3-[1-(4-methanesulfonyl-phenyl)-5-phenyl-1H-pyrazol-3-ylmethyl]-urea], for which the “COX-1 (% inhibition)” value in the data set on COX-1 stood at 3.4 % inhibition. Moreover, the IC50 on sEH [1] worked out at 2.6 ± 0.3 nM.

With `NS(=O)(=O)c1ccc(-n2nc(NC(=O)Nc3cccc(C(F)(F)F)c3)cc2-c2ccccc2)cc1` [compound 2121, 4-{5-Phenyl-3-[3-(3-trifluoromethyl-phenyl)-ureido]-pyrazol-1-yl}-benzenesulfonamide], the “COX-1 (% inhibition)” value with COX-1 is listed as 33.9 % inhibition. The IC50 on sEH [1] was determined as 88 ± 5 nM.
